In patent US20180256561A1, “Pharmaceutical Combination” (GLAXOSMITHKLINE INTELLECTUAL PROPERTY DEVELOPMENT LIMITED, priority 2015, published 2018):
Read-outs that look alike come from different tables or passages of the source.

Assays:
subjects with COPD [1] = details: 400 mcg and 1200 mcg once daily, 14 days; cited from earlier work
subjects with COPD [2] = details: 28-day study; cited from earlier work
[3] = tested on: subjects with persistent uncontrolled asthma; assay: Randomised, double-blind, placebo-controlled parallel group study of fluticasone furoate in subjects with persistent uncontrolled asthma (8 weeks); format: in vivo, human
Description: In one such study, the safety and efficacy of four doses of fluticasone furoate in subjects with persistent uncontrolled asthma were evaluated. In this study, which was a randomised, double-blind, placebo-controlled, parallel group study, 598 patients received one of six treatments: fluticasone furoate (25, 50, 100 or 200 mcg) once daily, fluticasone propionate 100 mcg twice daily or placebo for 8 weeks. The primary endpoint was change from baseline in trough (pre-dose) forced expiratory volume in 1 second (FEV1) at Week 8. […] This study supports the use of fluticasone furoate (100 or 200 mcg once-daily) for the treatment of persistent uncontrolled asthma.

Compound	tolerability (subjects with COPD [1])	tolerability (subjects with COPD [2])	increase in trough FEV1 from baseline at Week 8 relative to placebo ([3]; 100 mcg once daily) [mL]	increase in trough FEV1 from baseline at Week 8 relative to placebo ([3]; 200 mcg once daily) [mL]
COc1cc(NC(=O)CCN2CCC(OC(=O)Nc3ccccc3-c3ccccc3)CC2)c(Cl)cc1CNC[C@H](O)c1ccc(O)c2[nH]c(=O)ccc12 [Compound 1, biphenyl-2-ylcarbamic acid 1-[2-(2-chloro-4-{[(R)-2-hydroxy-2-(8-hydroxy-2-oxo-1,2-dihydroquinolin-5-yl)ethylamino]methyl}-5-methoxyphenylcarbamoyl)ethyl]piperidin-4-yl ester]	well tolerated	well tolerated		
C[C@@H]1C[C@H]2[C@@H]3C[C@H](F)C4=CC(=O)C=C[C@]4(C)[C@@]3(F)[C@@H](O)C[C@]2(C)[C@@]1(OC(=O)c1ccco1)C(=O)SCF [Compound 2, 6α,9α-difluoro-17α-[(2-furanylcarbonyl)oxy]-11β-hydroxy-16α-methyl-3-oxo-androsta-1,4-diene-17β-carbothioic acid S-fluoromethyl ester]			> 200	> 200
